Test results reported in patent publication US20230085307A1, “PYRIDAZINONE COMPOUND AND HERBICIDE” (NISSAN CHEMICAL CORPORATION, priority 2019, published 2023).

How the values were obtained:
Italian ryegrass [1] = experiment: Test Example 5: herbicidal effect by foliage application, plastic box (Table 20, symbol K); type: in vivo, Italian ryegrass (Lolium multiflorum); settings: foliage application, 320 g/ha
Procedure, shortened: (§1)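 Plants were sown into sterilized diluvial soil under about 1.5 cm cover and kept in a greenhouse at 25° C. to 30° C. Fourteen days on, foliage received an even spray of the diluted emulsion. Herbicidal or crop effect was judged three weeks afterwards.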

Italian ryegrass [2] = experiment: Test Example 4: herbicidal effect by soil treatment (Table 19, symbol K); type: in vivo, Italian ryegrass (Lolium multiflorum)
Procedure, shortened: (§2)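 Pre-emergence style soil spray: seeds under ~1.5 cm sterilized diluvial soil received a uniform coat of emulsion diluted to the predetermined herbicide amount. Greenhouse 25–30° C; readout at week three on previously defined criteria.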

chickweed = experiment: Test Example 4: herbicidal effect by soil treatment (Table 19, symbol P); type: in vivo, common chickweed (Stellaria media)
Procedure, shortened: as §2

persian speedwell [3] = experiment: Test Example 4: herbicidal effect by soil treatment (Table 19, symbol R); type: in vivo, Persian speedwell (Veronica persica)
Procedure, shortened: as §2

Japanese bulrush = experiment: Test Example 1: herbicidal activity, application before weed generation under submerged conditions (Table 16, symbol B); type: in vivo, Japanese bulrush (Schoenoplectus juncoides)
Procedure, shortened: (§3)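 Submerged Wagner pots (alluvial soil, 4 cm water) sown with weed seeds and planted with 2.5-leaf rice seedlings; emulsifiable concentrate diluted in water applied to water surface on sowing day. Held in greenhouse at 25-30 °C; injury scored 0-5 by herbicidal rate after three weeks.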

southern crabgrass [4] = experiment: Test Example 5: herbicidal effect by foliage application, plastic box (Table 20, symbol F); type: in vivo, southern crabgrass (Digitaria ciliaris); settings: foliage application, 320 g/ha
Procedure, shortened: as §1

blackgrass [5] = experiment: Test Example 5: herbicidal effect by foliage application, plastic box (Table 20, symbol J); type: in vivo, blackgrass (Alopecurus myosuroides); settings: foliage application, 320 g/ha
Procedure, shortened: as §1

windgrass [6] = experiment: Test Example 4: herbicidal effect by soil treatment (Table 19, symbol L); type: in vivo, windgrass (Apera spica-venti)
Procedure, shortened: as §2

barnyard grass [7] = experiment: Test Example 3: herbicidal effect by foliage application, Wagner pot (Table 18, symbol H); type: in vivo, barnyard grass (Echinochloa crus-galli); settings: 320 g/ha
Procedure, shortened: (§4)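 Plants were sown in alluvial soil held under 0.1–0.5 cm standing water and grown 14 days in a greenhouse at 25–30 °C. An emulsifiable formulation, water-diluted to the set dose, was then sprayed onto the foliage, and effects were scored three weeks later using previously defined criteria.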

wild oat [8] = experiment: Test Example 5: herbicidal effect by foliage application, plastic box (Table 20, symbol I); type: in vivo, wild oat (Avena fatua); settings: foliage application, 320 g/ha
Procedure, shortened: as §1

persian speedwell [9] = experiment: Test Example 5: herbicidal effect by foliage application, plastic box (Table 20, symbol R); type: in vivo, Persian speedwell (Veronica persica); settings: foliage application, 320 g/ha
Procedure, shortened: as §1

redroot pigweed = experiment: Test Example 4: herbicidal effect by soil treatment (Table 19, symbol N); type: in vivo, redroot pigweed (Amaranthus retroflexus)
Procedure, shortened: as §2

rice flat sedge = experiment: Test Example 3: herbicidal effect by foliage application, Wagner pot (Table 18, symbol E); type: in vivo, rice flat sedge (Cyperus iria); settings: 320 g/ha
Procedure, shortened: as §4

oval-leafed pondweed = experiment: Test Example 1: herbicidal activity, application before weed generation under submerged conditions (Table 16, symbol C); type: in vivo, oval-leafed pondweed (Monochoria vaginalis)
Procedure, shortened: as §3

wild oat [10] = experiment: Test Example 4: herbicidal effect by soil treatment (Table 19, symbol I); type: in vivo, wild oat (Avena fatua)
Procedure, shortened: as §2

barnyard grass [11] = experiment: Test Example 5: herbicidal effect by foliage application, plastic box (Table 20, symbol H); type: in vivo, barnyard grass (Echinochloa crus-galli); settings: foliage application, 320 g/ha
Procedure, shortened: as §1

velvetleaf [12] = experiment: Test Example 4: herbicidal effect by soil treatment (Table 19, symbol M); type: in vivo, velvetleaf (Abutilon theophrasti)
Procedure, shortened: as §2

green foxtail [13] = experiment: Test Example 5: herbicidal effect by foliage application, plastic box (Table 20, symbol G); type: in vivo, green foxtail (Setaria viridis); settings: foliage application, 320 g/ha
Procedure, shortened: as §1

windgrass [14] = experiment: Test Example 5: herbicidal effect by foliage application, plastic box (Table 20, symbol L); type: in vivo, windgrass (Apera spica-venti); settings: foliage application, 320 g/ha
Procedure, shortened: as §1

barnyard grass [15] = experiment: Test Example 4: herbicidal effect by soil treatment (Table 19, symbol H); type: in vivo, barnyard grass (Echinochloa crus-galli)
Procedure, shortened: as §2

green foxtail [16] = experiment: Test Example 4: herbicidal effect by soil treatment (Table 19, symbol G); type: in vivo, green foxtail (Setaria viridis)
Procedure, shortened: as §2

lambsquarters [17] = experiment: Test Example 4: herbicidal effect by soil treatment (Table 19, symbol O); type: in vivo, lambsquarters (Chenopodium album)
Procedure, shortened: as §2

velvetleaf [18] = experiment: Test Example 5: herbicidal effect by foliage application, plastic box (Table 20, symbol M); type: in vivo, velvetleaf (Abutilon theophrasti); settings: foliage application, 320 g/ha
Procedure, shortened: as §1

late watergrass = experiment: Test Example 1: herbicidal activity, application before weed generation under submerged conditions (Table 16, symbol A); type: in vivo, late watergrass (Echinochloa oryzicola)
Procedure, shortened: as §3

blackgrass [19] = experiment: Test Example 4: herbicidal effect by soil treatment (Table 19, symbol J); type: in vivo, blackgrass (Alopecurus myosuroides)
Procedure, shortened: as §2

southern crabgrass [20] = experiment: Test Example 4: herbicidal effect by soil treatment (Table 19, symbol F); type: in vivo, southern crabgrass (Digitaria ciliaris)
Procedure, shortened: as §2

lambsquarters [21] = experiment: Test Example 5: herbicidal effect by foliage application, plastic box (Table 20, symbol O); type: in vivo, lambsquarters (Chenopodium album); settings: foliage application, 320 g/ha
Procedure, shortened: as §1

Chinese sprangletop = experiment: Test Example 3: herbicidal effect by foliage application, Wagner pot (Table 18, symbol D); type: in vivo, chinese sprangletop (Leptochloa chinensis); settings: 320 g/ha
Procedure, shortened: as §4

[22] = amount of applied herbicide 320 g/ha

SMILES: Cc1nn(C)c(=O)c(-c2c(-c3ccc(C(F)(F)F)cc3)sc3ccc(F)cc23)c1O [2-020]
- effect on Italian ryegrass (K) (Italian ryegrass [1]; 3 weeks after application): 5 (Herbicidal rate of 90% or more (almost completely withered))
- herbicidal effect rating, K: Italian ryegrass (Italian ryegrass [2]; 320 g/ha): 5 (Herbicidal rate of 90% or more (almost completely withered))
- herbicidal effect rating, P: chickweed (chickweed; 320 g/ha): 3 (Herbicidal rate of 40% or more and less than 70%)
- herbicidal effect rating, R: persian speedwell (persian speedwell [3]; 320 g/ha): 5 (Herbicidal rate of 90% or more (almost completely withered))
- Herbicidal effect on B: Japanese bulrush (grade 0-5) (Japanese bulrush; 320 g/ha applied herbicide): 2 (Herbicidal rate of 20% or more and less than 40%)
- effect on southern crabgrass (F) (southern crabgrass [4]; 3 weeks after application): 5 (Herbicidal rate of 90% or more (almost completely withered))
- effect on blackgrass (J) (blackgrass [5]; 3 weeks after application): 3 (Herbicidal rate of 40% or more and less than 70%)
- herbicidal effect rating, L: windgrass (windgrass [6]; 320 g/ha): 5 (Herbicidal rate of 90% or more (almost completely withered))
- herbicidal effect on H (barnyard grass), rating 0-5 (barnyard grass [7]): 5 (Herbicidal rate of 90% or more (almost completely withered))
- effect on wild oat (I) (wild oat [8]; 3 weeks after application): 4 (Herbicidal rate of 70% or more and less than 90%)
- effect on persian speedwell (R) (persian speedwell [9]; 3 weeks after application): 5 (Herbicidal rate of 90% or more (almost completely withered))
- herbicidal effect rating, N: redroot pigweed (redroot pigweed; 320 g/ha): 5 (Herbicidal rate of 90% or more (almost completely withered))
- herbicidal effect on E (rice flat sedge), rating 0-5 (rice flat sedge): 5 (Herbicidal rate of 90% or more (almost completely withered))
- Herbicidal effect on C: oval-leafed pondweed (grade 0-5) (oval-leafed pondweed; 320 g/ha applied herbicide): 0 (Herbicidal rate of 5% or less (almost no effect))
- herbicidal effect rating, I: wild oat (wild oat [10]; 320 g/ha): 0 (Herbicidal rate of 5% or less (almost no effect))
- effect on barnyard grass (H) (barnyard grass [11]; 3 weeks after application): 5 (Herbicidal rate of 90% or more (almost completely withered))
- herbicidal effect rating, M: velvetleaf (velvetleaf [12]; 320 g/ha): 3 (Herbicidal rate of 40% or more and less than 70%)
- effect on green foxtail (G) (green foxtail [13]; 3 weeks after application): 5 (Herbicidal rate of 90% or more (almost completely withered))
- effect on windgrass (L) (windgrass [14]; 3 weeks after application): 5 (Herbicidal rate of 90% or more (almost completely withered))
- herbicidal effect rating, H: barnyard grass (barnyard grass [15]; 320 g/ha): 2 (Herbicidal rate of 20% or more and less than 40%)
- herbicidal effect rating, G: green foxtail (green foxtail [16]; 320 g/ha): 4 (Herbicidal rate of 70% or more and less than 90%)
- herbicidal effect rating, O: lambsquarters (lambsquarters [17]; 320 g/ha): 5 (Herbicidal rate of 90% or more (almost completely withered))
- effect on velvetleaf (M) (velvetleaf [18]; 3 weeks after application): 5 (Herbicidal rate of 90% or more (almost completely withered))
- Herbicidal effect on A: late watergrass (grade 0-5) (late watergrass; 320 g/ha applied herbicide): 0 (Herbicidal rate of 5% or less (almost no effect))
- herbicidal effect rating, J: blackgrass (blackgrass [19]; 320 g/ha): 3 (Herbicidal rate of 40% or more and less than 70%)
- herbicidal effect rating, F: southern crabgrass (southern crabgrass [20]; 320 g/ha): 3 (Herbicidal rate of 40% or more and less than 70%)
- effect on lambsquarters (O) (lambsquarters [21]; 3 weeks after application): 5 (Herbicidal rate of 90% or more (almost completely withered))
- herbicidal effect on D (Chinese sprangletop), rating 0-5 (Chinese sprangletop): 3 (Herbicidal rate of 40% or more and less than 70%)

SMILES: CCOc1ccccc1-c1sc2cc(OC)c(Cl)cc2c1-c1c(O)c(C)nn(C)c1=O [5-072]
- herbicidal effect on Italian ryegrass (K) (Italian ryegrass [1]; three weeks after application): 0 (Herbicidal rate of 5% or less (almost no effect))
- K: Italian ryegrass, herbicidal effect grade (Italian ryegrass [2]; [22]): 0 (Herbicidal rate of 5% or less (almost no effect))
- P: chickweed, herbicidal effect grade (chickweed; [22]): 2 (Herbicidal rate of 20% or more and less than 40%)
- R: persian speedwell, herbicidal effect grade (persian speedwell [3]; [22]): 3 (Herbicidal rate of 40% or more and less than 70%)
- Herbicidal effect, B: Japanese bulrush (Japanese bulrush; [22]): 2 (Herbicidal rate of 20% or more and less than 40%)
- herbicidal effect on southern crabgrass (F) (southern crabgrass [4]; three weeks after application): 5 (Herbicidal rate of 90% or more (almost completely withered))
- herbicidal effect on blackgrass (J) (blackgrass [5]; three weeks after application): 3 (Herbicidal rate of 40% or more and less than 70%)
- L: windgrass, herbicidal effect grade (windgrass [6]; [22]): 0 (Herbicidal rate of 5% or less (almost no effect))
- herbicidal effect on barnyard grass (H) (barnyard grass [7]): 5 (Herbicidal rate of 90% or more (almost completely withered))
- herbicidal effect on wild oat (I) (wild oat [8]; three weeks after application): 2 (Herbicidal rate of 20% or more and less than 40%)
- herbicidal effect on persian speedwell (R) (persian speedwell [9]; three weeks after application): 5 (Herbicidal rate of 90% or more (almost completely withered))
- N: redroot pigweed, herbicidal effect grade (redroot pigweed; [22]): 3 (Herbicidal rate of 40% or more and less than 70%)
- herbicidal effect on rice flat sedge (E) (rice flat sedge): 5 (Herbicidal rate of 90% or more (almost completely withered))
- Herbicidal effect, C: oval-leafed pondweed (oval-leafed pondweed; [22]): 0 (Herbicidal rate of 5% or less (almost no effect))
- I: wild oat, herbicidal effect grade (wild oat [10]; [22]): 0 (Herbicidal rate of 5% or less (almost no effect))
- herbicidal effect on barnyard grass (H) (barnyard grass [11]; three weeks after application): 5 (Herbicidal rate of 90% or more (almost completely withered))
- M: velvetleaf, herbicidal effect grade (velvetleaf [12]; [22]): 1 (Herbicidal rate of 5% or more and less than 20%)
- herbicidal effect on green foxtail (G) (green foxtail [13]; three weeks after application): 5 (Herbicidal rate of 90% or more (almost completely withered))
- herbicidal effect on windgrass (L) (windgrass [14]; three weeks after application): 5 (Herbicidal rate of 90% or more (almost completely withered))
- H: barnyard grass, herbicidal effect grade (barnyard grass [15]; [22]): 1 (Herbicidal rate of 5% or more and less than 20%)
- G: green foxtail, herbicidal effect grade (green foxtail [16]; [22]): 4 (Herbicidal rate of 70% or more and less than 90%)
- O: lambsquarters, herbicidal effect grade (lambsquarters [17]; [22]): 3 (Herbicidal rate of 40% or more and less than 70%)
- herbicidal effect on velvetleaf (M) (velvetleaf [18]; three weeks after application): 5 (Herbicidal rate of 90% or more (almost completely withered))
- Herbicidal effect, A: late watergrass (late watergrass; [22]): 0 (Herbicidal rate of 5% or less (almost no effect))
- J: blackgrass, herbicidal effect grade (blackgrass [19]; [22]): 0 (Herbicidal rate of 5% or less (almost no effect))
- F: southern crabgrass, herbicidal effect grade (southern crabgrass [20]; [22]): 5 (Herbicidal rate of 90% or more (almost completely withered))
- herbicidal effect on lambsquarters (O) (lambsquarters [21]; three weeks after application): 4 (Herbicidal rate of 70% or more and less than 90%)
- herbicidal effect on Chinese sprangletop (D) (Chinese sprangletop): 3 (Herbicidal rate of 40% or more and less than 70%)
